From patent EP1598418A1, “STABILISED COMPOSITION FOR FLUORIMETRIC, COLORIMETRIC OR CHEMOLUMINESCENT ASSAYS, KITS CONTAINING SAME AND PRODUCTION METHOD THEREOF” (BIOTOOLS BIOTECHNOLOGICAL & MEDICAL LABORATORIES, S.A., priority 2003, dated 2004)

Key:
Settings in all cases: conserved at T 4 °C, vs fresh mixture
FRET probes = assay: Real-time amplification with desiccated, stabilised reaction mixture with FRET probes after storage (Example 1); format: biochemical, P. falciparum
TaqMan probes = assay: Real-time amplification with desiccated, stabilised reaction mixture with TaqMan probes after storage (Example 2); format: biochemical, P. falciparum
[1] = tested on: Molecular Beacon (MB) probe; assay: Real-time amplification with desiccated, stabilised reaction mixture with Molecular Beacon probe after storage (Example 3); format: biochemical, P. falciparum
Scorpion probes = assay: Real-time amplification with desiccated, stabilised reaction mixture with Scorpion probes after storage (Example 4); format: biochemical, M. tuberculosis
[2] = tested on: reaction mixture with SYBR Green; assay: Real-time amplification with desiccated, stabilised reaction mixture with SYBR Green after storage (Example 5); format: biochemical, oncogenic papillomaviruses
Experimental: To test the efficiency of intercalated fluorophores such as SYBR Green included in desiccated and stabilised reaction mixtures, reaction mixtures were prepared for amplifying a 250 bp fragment corresponding to region E6-E7 of oncogenic papillomaviruses, using the same reagents as described in Example 1. In this case the unit "DNA Engine OPTICON™ 2 System" (MJ Research) was used. […] Also to each phial was added […] of SYBR Green 1 (Molecular probes).
Various tubes were prepared as described above, adding to each the suitable volume of each stabilising mixture shown in Table 1.
In parallel, in order to check the evolution of the activity of the desiccated tubes, DNA samples were amplified using a fresh mixture in the same amplification conditions.
The result of the amplification reaction was analysed in every case by inspecting the fluorescence curve and determining the crossing point, following the instructions of the equipment software, for each reaction tube both fresh and desiccated and stabilised. […] The samples of patients infected with oncogenic HPV gave positive results in every case, while patients infected with non-oncogenic HPV, or not infected with HPV, gave negative results in every case.

[3] = tested on: DTCS Quick Start Master Mix; assay: Sequencing reaction with desiccated, stabilised mixture with fluorescent terminators after storage (Example 6); format: biochemical, human papillomavirus
Experimental: To test the possibility of gelling reaction mixtures for sequencing nucleic acids the CEQ 200 Dye Terminator Cycle Sequencing (DTCS) Quick Start Kit (Beckman Coulter) was employed, which uses a PCR sequencing system in a single tube by incorporating four different fluorescent terminators. The sequencing reactions were later analysed in a CEQ 2000 XL DNA Analysis System (Beckman Coulter) capillary electrophoresis automatic sequencing system.
Reaction mixtures were prepared containing 4 microlitres of DTCS Quick Start Master Mix, 1 microlitre of universal primer M13-17 and the suitable volume of each stabilising mixture shown in Table 1.
In parallel, in order to check the evolution of the activity of the desiccated and stabilised tubes, the same plasmid was sequenced using a fresh sequencing mixture in standard conditions. Finally, the sequencing reactions were analysed in the CEQ 200XL system following the supplier's instructions.

[4] = tested on: oligonucleotides chemically modified by including biotin and/or digoxygenin groups; assay: Amplification with desiccated biotin/digoxygenin oligonucleotides and colorimetric ELISA plate assay (Example 7); format: biochemical, oncogenic HPV
Experimental: To do so, 4 oligonucleotides were designed that hybridised with the genome of region E6-E7 of oncogenic HPV species.
To do so, an ELISA microplate with a high-binding capacity to streptoavidin (Biospa) was activated following a standard fixing protocol. Then, after blocking the plate by incubation with gelatine, the amplified products of the stabilising mixtures 1, 2 and 3 described in Example 7.A were analysed by a colorimetry assay according to the following experimental process: • A.- Amplification products using an onligonucleotide marked with digoxygenin (mixture 1 in Example 7.A). The biotinated probe A11 was fixed to the plate and the amplified product was hybridised. […] The amplification product was fixed to the plate with the first biotinilate and then hybridised with the first A12 marked with digoxygenin.

[5] = tested on: streptoavidin conjugated with HRP (Str-HRP) and anti-digoxygenin conjugated with alkaline phospatase (anti-DIG-AP); assay: Colorimetric ELISA plate activity test of desiccated, stabilised conjugates (Example 8); format: biochemical, HPV 16
Experimental: In 0.2 ml amplification tubes were added 100 microlitres of a 1/250 dilution in a blocking solution of the conjugate Str-HRP (Biospa). In parallel, 0.2 ml phials were prepared in which 100 microlitres were added of a 1/250 dilution in a blocking solution of anti-DIG-AP (Sigma).
For the activity assay of the conjugate anti-DIG-AP an ELISA plate was used in which the dimples had been previously coated with streptoavidin. For the activity assay of conjugate Str-HRP a plate was used instead with dimples previously coated with anti-DIG antibodies. The amplified products were incubated in each plate to allow the immobilisation of the amplicons in the plate.

antidigoxygenin antibody = assay: Colorimetry assay of stabilised protein immobilised in ELISA microplates (Example 10.2); format: biochemical, HPV
Experimental: To do so each dimple was incubated with 1µg of antidigoxygenin antibody (Roche).
The amplified product was incubated for 30 minutes in the dimples with the antibody immobilised. The amplified products immobilised in the plate by the union of the digoxygenin group of the amplicons and the immobilised anti-digoxygenin group were analysed by a colorimetric assay. […] The colorimetric reaction was finally analysed by measuring absorption at 415 nm.

[6] = tested on: nucleic acids immobilised in modified glasses; assay: Colorimetric assay of stabilised nucleic acids immobilised in modified glasses (Example 10.3); format: biochemical, HPV 16
Experimental: Approach 1. Stabilisation of supports with previously fixed nucleic acids. HPV specific probes were fixed to glass supports pre-treated with polylysiun, aldehyde, epoxy, superepoxy and silane. To do so, in each support slide 1 microlitre spots were applied of the solution of each oligonucleotide at a concentration of 20 µM in the conditions indicated for each glass format. The slides with the immobilised oligonucleotides were then coated with a thin layer of each of the stabilising mixtures and then desiccated in a vacuum oven at 25°C and 50 mbar pressure.
(§1) Approach 2. Fixation to the slides of the nucleic acids pre-mixed with the stabilising mixtures. A mixture was prepared of each of the probes with the suitable volumes of the stabilising mixtures described in Table 1. Then the mixtures of oligonucleotides were applied to the various slides with the fixing conditions indicated for each glass format.
To test the viability of each slide prepared, a colorimetric assay was performed with formation of precipitate products. To do so, the slides were washed for 5 minutes in PBS 1X at room temperature to eliminate the protective layer. Then the slides were incubated in the presence of an amplified and previously denatured HPV 16 product using the probes A11 and A12.

[7] = tested on: Anti-digoxygenin antibodies; assay: Colorimetric assay of stabilised proteins immobilised in modified glasses (Example 10.4); format: biochemical, P. falciparum
Experimental: To test the possibility of stabilising proteins that have been previously immobilised in pre-treated glass supports, the usual format of microarray systems, two different alternatives were tested as in the previous experiment.
Approach 1. Stabilisation of supports with previously fixed protein. Anti-digoxygenin antibodies were fixed to glass supports pre-treated with aldehyde. To do so, in each support slide 1 microlitre spots were applied of the solution of each protein at a concentration of 30 ng/µl. The slides with the immobilised protein were then coated with a thin layer of each of the stabilising mixtures and then desiccated in a vacuum oven at 25°C and 50 mbar pressure.
as §1, with “protein” for “nucleic acids”, “protein” for “oligonucleotides”
To test the viability of each slide prepared, a colorimetric assay was performed with formation of precipitate products. To do so, the slides were washed for 5 minutes in PBS 1X at room temperature to eliminate the protective layer.

[8] = tested on: probes marked with biotin or digoxygenin groups; assay: Synthesis of digoxygenin-marked probes with desiccated mixtures and molecular hybridisation test (Example 9)
[9] = tested on: nucleic acids immobilised in ELISA microplates; assay: Amplification and colorimetric detection with stabilised nucleic acids immobilised in ELISA microplates (Example 10.1)

Row | Structure (SMILES) | activity of stabilising mixtures (FRET probes) | activity of stabilising mixtures (TaqMan probes) | activity of stabilising mixtures [1] | activity of stabilising mixtures (Scorpion probes) | activity of stabilising mixtures [2] | activity of stabilising mixtures [3] | activity of stabilising mixtures [4] | activity of stabilising mixtures [5] | activity of stabilising mixtures (antidigoxygenin antibody) | activity of stabilising mixtures [6] | activity of stabilising mixtures [7] | activity of stabilising mixtures [8] | activity of stabilising mixtures [9]
1 | NCCCC[C@H](N)C(=O)O [Lysine] | + (+, weak positive, under 50% of the activity of the fresh mixture) | + (+, weak positive, under 50% of the activity of the fresh mixture) | + (+, weak positive, under 50% of the activity of the fresh mixture) | + (+, weak positive, under 50% of the activity of the fresh mixture) | + (+, weak positive, under 50% of the activity of the fresh mixture) | + (+, weak positive, under 50% of the activity of the fresh mixture) | + (+, weak positive, under 50% of the activity of the fresh mixture) | + (+, weak positive, under 50% of the activity of the fresh mixture) | + (+, weak positive, under 50% of the activity of the fresh mixture) | + (+, weak positive, under 50% of the activity of the fresh mixture) | + (+, weak positive, under 50% of the activity of the fresh mixture) | + (+, weak positive, under 50% of the activity of the fresh mixture) | + (+, weak positive, under 50% of the activity of the fresh mixture)
2 | OCC(O)CO [Glycerol] | ++ (++, positive with 50-90% of the activity of the fresh mixture) | ++ (++, positive with 50-90% of the activity of the fresh mixture) | ++ (++, positive with 50-90% of the activity of the fresh mixture) | – | – | ++ (++, positive with 50-90% of the activity of the fresh mixture) | ++ (++, positive with 50-90% of the activity of the fresh mixture) | ++ (++, positive with 50-90% of the activity of the fresh mixture) | ++ (++, positive with 50-90% of the activity of the fresh mixture) | ++ (++, positive with 50-90% of the activity of the fresh mixture) | ++ (++, positive with 50-90% of the activity of the fresh mixture) | ++ (++, positive with 50-90% of the activity of the fresh mixture) | ++ (++, positive with 50-90% of the activity of the fresh mixture)
3 | OC[C@@H](O)[C@@H](O)[C@H](O)[C@@H](O)CO [Sorbitol] | ++ (++, positive with 50-90% of the activity of the fresh mixture) | ++ (++, positive with 50-90% of the activity of the fresh mixture) | ++ (++, positive with 50-90% of the activity of the fresh mixture) | – | – | ++ (++, positive with 50-90% of the activity of the fresh mixture) | ++ (++, positive with 50-90% of the activity of the fresh mixture) | ++ (++, positive with 50-90% of the activity of the fresh mixture) | ++ (++, positive with 50-90% of the activity of the fresh mixture) | ++ (++, positive with 50-90% of the activity of the fresh mixture) | ++ (++, positive with 50-90% of the activity of the fresh mixture) | ++ (++, positive with 50-90% of the activity of the fresh mixture) | ++ (++, positive with 50-90% of the activity of the fresh mixture)
